# Measurements from patent US7326686B2, “Compounds and methods for regulating cell adhesion” (Adherex Inc., priority 1997, dated 2008).
# Where no end group is shown, it is not given here.
# Key:
# [1] = test system: Schwann cell-astrocyte adhesion; test: Schwann cell-astrocyte adhesion assay (Dil-labelled Schwann cells on astrocyte monolayer, shaking platform 30 min); format: cell-based, rat
# Experimental: The effect of a modulating agent on Schwann cell adhesion to astrocytes may generally be evaluated using a cell adhesion assay. Briefly, Schwann cells fluorescently labeled with Di-I may be plated onto an astrocytic surface (e.g., a glass coverslip coated with a monolayer of astrocytes) and incubated on a shaking platform (e.g., 25 rpm for 30 minutes) in the presence and absence of modulating agent (e.g., LRAHAVDING (SEQ ID NO: 21) at a concentration of 1 mg/mL). Cells may then be washed (e.g., in Hanks medium) to remove non-attached cells. The attached cells may then be fixed and counted (e.g., using a fluorescent microscope). In general, 1 mg/mL of a modulating agent results in an increase or decrease in cell adhesion of at least 50%. This assay evaluates the effect of a modulating agent on N-cadherin mediated cell adhesion.
# In order to test whether the migratory behavior of Schwann cells on different cell types was a function of adhesivity to the substratum, Dil-labeled Schwann cells were plated onto either astrocytic, fibroblasts, Schwann cell or laminin surfaces. 20,000 Dil-labeled Schwann cells were placed in a 15 mm diameter well in 0.5 ml of medium over a 13 mm glass coverslip coated with laminin, or a complete monolayer of astrocytes, fibroblasts or Schwann cells and then placed onto a shaking platform (25 rpm) for 30 minutes in an incubator. The coverslips were washed three times in Hanks after 30 minutes to remove any non-attached cells and the remainder were fixed for 20 minutes in 4% paraformaldehyde. The number of Dil-labeled Schwann cells that were attached to the coverslip were counted using a Leitz Diaplan fluorescent microscope under rhodamine optics.
# In order to reduce extracellular calcium, DMEM was replaced by S-MEM (Joklik's modification; Gibco) with 0.2 mM calcium chloride added or the calcium buffer EGTA (Sigma) was employed. Adhesion assays in the absence of external calcium were performed using Schwann cells and astrocytes. Either a low calcium solution (S-MEM in place of DMEM with 0.2 mM calcium chloride) or a calcium buffer (EGTA in a normal DMEM medium) was used in these assays. […] EGTA concentrations less than 1.3 mM had little effect upon Schwann cell migration whereas those above 1.8 mM caused disruption of the astrocytic monolayer (data not shown). Adhesion of Schwann cells to astrocytes in the presence of the standard DMEM based medium was taken as the control and assigned the normalized value of 1.0±0.03. Low calcium solutions reduced intercellular adhesion to 0.47±0.09 and the addition of 1.6 mM EGTA to DMEM reduced adhesion to 0.39±0.05 (FIG. 10A). […]
# [2] = test system: Schwann cell migration on astrocytes; test: Micro-inverted-coverslip migration assay on astrocyte monolayers; format: cell-based, rat
# Experimental: Schwann cell migration may generally be evaluated using a micro-inverted-coverslip assay. In this assay, a dense Schwann cell culture is established on coverslip fragments and Schwann cell migration away from the fragment edge is measured. Briefly, Schwann cells fluorescently labeled with Di-I may be plated on polylysine- and laminin-coated fragments of a glass coverslip and allowed to bind to the surface for 16-18 hours. Cells may then be washed (e.g., in Hanks medium) to remove non-attached cells, and then inverted, with cells facing downward onto an astrocyte-coated surface. Cultures are then incubated further for 2 days in the presence or absence of modulating agent (e.g., LRAHAVDING (SEQ ID NO: 21) at a concentration of 1 mg/mL) and fixed. The maximum migration distance from the edge of the coverslip fragment may then be measured. At a level of 1 mg/mL, modulating agent results in an increase or decrease in the maximum migration distance of at least 50%. This assay evaluates the effect of a modulating agent on N-cadherin mediated cell adhesion.
# In order to assess the rates of Schwann cell migration on different surfaces, the micro-inverted-coverslip migration assay was employed. This is a variation of the technique first described by Fok-Seang et al., Dev. Biol. 171:1-15, 1995. Schwann cells fluorescently labeled with Di-I (25 μg/ml) were evenly plated onto polylysine and laminin coated fragments of glass coverslip (1×2 mm). After 16-18 hours, the pieces of glass coated with Di-I labeled Schwann cells were dipped into Hanks three times to remove any loosely attached cells and then inverted with cells facing downwards onto laminin-coated tissue culture surfaces or onto cell monolayers. These cultures were then incubated for a further two days and fixed for 20 minutes with 4% paraformaldehyde. The maximum migration distance was measured, and the number of cells in bands of 0.1 mm progressing outwards from the edge of the coverslip were counted.
# In this assay, a dense Schwann cell culture is established on coverslip fragments and their migration away from its edge measured. The assay therefore measures the ability of Schwann cells to migrate on a surface, and their ability to migrate away from a confluent Schwann cell monolayer. The migration front of the foremost cells was measured, and the number of cells against distance of migration plotted. Schwann cell-laden fragments were placed on laminin to give a baseline migration rate on a favorable defined surface, and laminin controls were done for comparison on each assay.
# [3] = peptide 1 mg/ml, adhesion in the absence of peptide = 1.0±0.05, mean±S.E.M.
molecule,measurement,setting,value
MRAHAVDING-NH2,"Schwann cell-astrocyte adhesion, normalized",[1]; [3],0.39±0.04
LRAHAVDING-NH2,"Schwann cell-astrocyte adhesion, normalized",[1]; [3],0.38±0.07
LRAHGVDING-NH2,"Schwann cell-astrocyte adhesion, normalized",[1]; [3],0.78±0.10
O=C(O)CN(CCOCCOCCN(CC(=O)O)CC(=O)O)CC(=O)O [EGTA],"Schwann cell-astrocyte adhesion, normalized","[1]; 1.6 mM EGTA added to DMEM, standard DMEM control = 1.0±0.03",0.39±0.05
same,extent of Schwann cell migration upon astrocyte monolayers,"[2]; EGTA 1.6 mM, control migration 0.25±0.03",0.86 mm
same,concentrations causing disruption of the astrocytic monolayer,[2]; data not shown,above 1.8 mM
same,concentrations with little effect upon Schwann cell migration,[2]; data not shown,less than 1.3 mM
same,optimal concentration for Schwann cell migration,[2]; various concentrations of EGTA tested (data not shown),1.6 mM
